Assay results: US20240327320A1, “NOVEL ROUTES OF CHEMICAL SYNTHESIS OF 20S(OH)D3, 20S,25(OH)2D3, 20S,23S(OH)2D3, AND 20S,23R(OH)2D3 AND THEIR MODIFICATION OF THE IMMUNE ACTIVITY OF PBMCS” (United State Government as represen ted by the Department …, priority 2023, published 2024)

Assays:
[1] = test system: CD4 and CD8 T cells from human peripheral blood; assay: T cell activation in PBMC, flow cytometry with TriMAP/FlowSOM; assay type: cell-based; conditions: 10^-7 M, 24 h, anti-CD3 and anti-CD28, compared to ethanol treated cells
Protocol: Human peripheral blood mononuclear cells (PBMC) from two healthy individuals were obtained from a pre-existing respository. Their use was approved by the University of Alabama at Birmingham Institutional Review Board (Human Subject Assurance Number FWA00005960) as an exempt protocol #4 (Dr C. Raman, P.I.). […] Informed consent is waived in accord with 45CFR46.116 (d). In 48 well plates, 0.5×10^6 PBMC/well were cultured in RPMI1640 containing, 5% charcoal adsorbed FBS and antibiotics and T cells were activated using […] anti-CD3 (clone 145-2C11) and 1 μg/ml anti-CD28 (clone 37.51) for 24 h (Janjetovic Z, et. al., (2021) Endocrinology 162(1), Chaiprasongsuk A, et. al., (2020) Free Radic Biol Med 155 87-98, Slominski A T, et. al., (2011) Am J Physiol Cell Physiol 300(3) C526-41, McGuire D J, et. al., (2014) Eur J Immunol 44(4) 1137-42, Sestero C M, et. al., (2012) J Immunol 189(6) 2918-30). The culture was treated with 10^-7 M 20S(OH)D3, 20S,25(OH)2D3, 20S,23S(OH)2D3, 20S,23R(OH)2D3 or 1α,25(OH)2D3 (Sigma-Aldrich, St. Louis, MO, USA) dissolved in ethanol and diluted in culture medium at the same time of addition of anti-CD3 and anti-CD28. The vehicle control comprised of 0.1% ethanol. At the end of assay the cells were stained with antibodies to CD4 (clone RPA-T4, BV-421), CD19 (clone HB19, BV-510), CD14 (clone HCD14, Alexa 700), CD137 (clone 4B4-1, BV605), CD8a (clone RPA-T8, FITC), ICOS (clone C398.4A, PE/Dazzle), PD1 (clone NAT105, PE), CD80 (clone 2D10, PerCP/Cy5.5), OX40 (clone ACT35, PE/Cy7), CD69 (clone FN50, APC), HLA-DR (clone L243, APC/Fire 750). All antibodies were from Biolegend except anti-CD8 was from Thermo Fisher. The stained cells were analyzed using a CytoFLEX (Beckman Coulter) flow cytometer.
For unbiased analysis of the multidimensional data, acomputational algorithm-based approaches was utilized (Quintelier K, et. al., (2021) Nature Protocols 16(8) 3775-3801). The flow cytometry standard (FCS) data files from each individual and treatment (two individuals, six treatments including ethanol, a total of 12 data files) were processed through the following workflow—compensation, gating on live cells, gating for single cells and subtraction of CD19+(B cells) and CD14+(monocytes). B cells and monocytes were removed from the analysis because only T cells (CD4+ and CD8+) are activated by anti-CD3 and anti-CD28. After these initial gating steps, a key word was added to each of the 12 FCS files, down sampled to 50,000 events/sample and concatenated. Down sampling ascertains that each sample is equally weighted, and concatenation ascertains that statistical analysis is applied equally. The concatenated files were first subjected to TriMAP analysis, a computational algorithm that clusters populations based on triplet relatedness followed by FlowSOM algorithm-based clustering (Quintelier K, et. al., (2021) Nature Protocols 16(8) 3775-3801). To perform these analyses, plugins within FlowJo (BD, CA, USA) were used.
T cells in peripheral blood from two healthy individuals were activated with anti-CD3 and anti-CD28 in the absence (ethanol) or presence of 10^−7 M of each of the vitamin D3 secosteroids for 24 h. The cells were stained for lineage markers (CD4, CD8, CD19, CD14) and a panel of activation induced markers (CD69, ICOS, OX40, CD137, PD1, HLADR) and expression data were collected using a flow cytometer. The gating strategy was live, single cell followed by CD4 and CD8 T cell populations. […]

[2] = test system: Human epidermal keratinocytes (HEKn); assay: Protein expression, immunofluorescence; assay type: cell-based; conditions: 48 h, FIG. 7C
Protocol: HEKn were cultured until the third passage before treatment. Keratinocytes were plated in a 96-well plate and at 80% confluence, 10^-7 M secosteroids (or 0.1% ethanol control) were added and cells were incubated for 48 h. Cells were fixed and stained with anti-involucrin (1:20, GTX-14504; Genetex, Irvine, CA, USA) anti-CK10 (1:300, Santa Cruz Biotechnology), anti-catalase (1:200, Santa Cruz Biotechnology) or anti-CK14 antibody with Alexa Fluor® 488 (1:500, Santa Cruz Biotechnology) and imaged at 10× magnification in Cytation 5 reader as described before (Chaiprasongsuk A, et. al., (2020) Free Radic Biol Med 155 87-9845; Slominski A T, et. al., (2017) Sci Rep 7(1) 11434; Chaiprasongsuk A, et. al., (2020) Int J Mol Sci 21(24)). Nuclei were stained with blue DAPI. Fluorescence intensity was measured using the Cytation 5 reader and ImageJ, and data were analyzed using Graph Pad Prizm.
FIG. 7C and FIG. 7D represent protein expression studies. Values are presented as percentage of fluorescence positive cells (FIG. 7C) or as mean fluorescence per cell (% of all cells (FIG. 7D). The values in FIG. 7D were calculated as mean green fluorescence vs DAPI blue fluorescence measured in ImageJ. Data are means±SD (n=3) and were analyzed using Student's t-test with p<0.05 (*), p<0.01 (**) or p<0.001 (***).

[3] = literature, at the same doses; cited from earlier work

| Structure (SMILES) | CD4 T cells of population 4 (down modulated CD4, increased CD69 and ICOS) [1] | protein levels of involucrin, CK10, CK14, and catalase [2] | calcemic activity / toxicity [3] |
| --- | --- | --- | --- |
| C=C1CC[C@H](O)C/C1=C/C=C1\CCC[C@@]2(C)[C@H]1CC[C@@H]2[C@@](C)(O)CCCC(C)C [20S(OH)D3, (20S)-20-Hydroxyvitamin D3] | increased the proportion of cells with population 4 phenotype | increasing the levels of involucrin, CK10, CK14, and catalase | non-calcemic |
| C=C1CC[C@H](O)C/C1=C/C=C1\CCC[C@@]2(C)[C@H]1CC[C@@H]2[C@@](C)(O)C[C@H](O)CC(C)C [20S,23R(OH)2D3, (20S,23R)-20,23-Dihydroxyvitamin D3] |  | increasing the levels of involucrin, CK10, CK14, and catalase |  |
| C=C1CC[C@H](O)C/C1=C/C=C1\CCC[C@@]2(C)[C@H]1CC[C@@H]2[C@@](C)(O)C[C@@H](O)CC(C)C [20S,23S(OH)2D3, (20S,23S)-20,23-Dihydroxyvitamin D3] | fewer cells | increasing the levels of involucrin, CK10, CK14, and catalase | non-calcemic |
| C=C1CC[C@H](O)C/C1=C/C=C1\CCC[C@@]2(C)[C@H]1CC[C@@H]2[C@@](C)(O)CCCC(C)(C)O [20S,25(OH)2D3, (20S)-20,25-Dihydroxyvitamin D3] | fewer cells | increasing the levels of involucrin, CK10, CK14, and catalase |  |
